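Dose response: 5 concentrations. Exposure: 48 h. Format: 96-well plates. Endpoint: linear interpolation; highest concentration if not reached. TGI: concentration producing complete growth inhibition.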
Experiments:
Experiment in all cases: growth of human tumour cells (NCI), 48 h
BT-549 breast = tested on: BT-549 breast
SR leukemia = tested on: SR leukemia
EKVX NSCLC = tested on: EKVX NSCLC
U251 CNS = tested on: U251 CNS
NCI/ADR-RES ovarian = tested on: NCI/ADR-RES ovarian
T-47D breast = tested on: T-47D breast
DU-145 prostate = tested on: DU-145 prostate
SW-620 colon = tested on: SW-620 colon
MCF7 breast = tested on: MCF7 breast
SF-268 CNS = tested on: SF-268 CNS
A498 renal = tested on: A498 renal
SK-MEL-28 melanoma = tested on: SK-MEL-28 melanoma
RXF 393 renal = tested on: RXF 393 renal
CCRF-CEM leukemia = tested on: CCRF-CEM leukemia
UACC-257 melanoma = tested on: UACC-257 melanoma
HCT-116 colon = tested on: HCT-116 colon
MALME-3M melanoma = tested on: MALME-3M melanoma
UACC-62 melanoma = tested on: UACC-62 melanoma
MDA-MB-231 breast = tested on: MDA-MB-231 breast
NCI-H522 lung = tested on: NCI-H522 lung
SK-OV-3 ovarian = tested on: SK-OV-3 ovarian
SK-MEL-2 melanoma = tested on: SK-MEL-2 melanoma
UO-31 renal = tested on: UO-31 renal
K-562 leukemia = tested on: K-562 leukemia
HT29 colon = tested on: HT29 colon
M14 melanoma = tested on: M14 melanoma
LOX IMVI melanoma = tested on: LOX IMVI melanoma
SF-295 CNS = tested on: SF-295 CNS
MDA-N = tested on: MDA-N
PC-3 prostate = tested on: PC-3 prostate
CAKI-1 renal = tested on: CAKI-1 renal
NCI-H460 lung = tested on: NCI-H460 lung
NCI-H23 lung = tested on: NCI-H23 lung
HCC-2998 colon = tested on: HCC-2998 colon
SK-MEL-5 melanoma = tested on: SK-MEL-5 melanoma
KM12 colon = tested on: KM12 colon
MOLT-4 leukemia = tested on: MOLT-4 leukemia
ACHN renal = tested on: ACHN renal
OVCAR-5 ovarian = tested on: OVCAR-5 ovarian
IGROV1 ovarian = tested on: IGROV1 ovarian
RPMI-8226 leukemia = tested on: RPMI-8226 leukemia
NCI-H226 lung = tested on: NCI-H226 lung
HOP-62 NSCLC = tested on: HOP-62 NSCLC
OVCAR-8 ovarian = tested on: OVCAR-8 ovarian
SF-539 CNS = tested on: SF-539 CNS
SNB-19 CNS = tested on: SNB-19 CNS
TK-10 renal = tested on: TK-10 renal
SNB-75 CNS = tested on: SNB-75 CNS
HCT-15 colon = tested on: HCT-15 colon
MDA-MB-435 = tested on: MDA-MB-435
SN12C renal = tested on: SN12C renal
A549 NSCLC = tested on: A549 NSCLC
OVCAR-4 ovarian = tested on: OVCAR-4 ovarian
786-0 renal = tested on: 786-0 renal
COLO 205 colon = tested on: COLO 205 colon
OVCAR-3 ovarian = tested on: OVCAR-3 ovarian
HS 578T breast = tested on: HS 578T breast
HOP-92 NSCLC = tested on: HOP-92 NSCLC
HL-60(TB) leukemia = tested on: HL-60(TB) leukemia

Measured: TGI

CCOP(=O)(OCC)[C@H](O)c1ccsc1
not listed: OVCAR-3 ovarian | HS 578T breast | HOP-92 NSCLC | HL-60(TB) leukemia
> 100 µM: all other assays above

Cc1ccc(S(=O)(=O)N2CCN3C(=O)c4ccccc4C32c2ccc(F)cc2)cc1 (stereo unspecified)
52.8 µM: SR leukemia
83.3 µM: RPMI-8226 leukemia
80 µM: CCRF-CEM leukemia
65.9 µM: MOLT-4 leukemia
35.2 µM: SK-MEL-5 melanoma
63.5 µM: A498 renal
not listed: LOX IMVI melanoma | SF-539 CNS | HOP-92 NSCLC | HL-60(TB) leukemia
> 100 µM: all other assays above

Cc1sc2nc3n(c(=O)c2c1C)N=CN(c1ccccc1)C3
65.3 µM: HOP-62 NSCLC
46.5 µM: 786-0 renal
79.8 µM: HOP-92 NSCLC
not listed: SF-539 CNS | HS 578T breast | HL-60(TB) leukemia
> 100 µM: all other assays above

COc1ccc(Nc2[nH]c(C(C)=O)c(N)c2C(=S)Nc2ccccc2)cc1
77.7 µM: RXF 393 renal
95.7 µM: UACC-62 melanoma
68.6 µM: MCF7 breast
69.3 µM: M14 melanoma
48.1 µM: COLO 205 colon
not listed: PC-3 prostate | RPMI-8226 leukemia
> 100 µM: all other assays above

CC[C@@H]1CC[C@@H]2[C@H](CC[C@]3(C)[C@@H](O)CC[C@@H]23)[C@H]1C(=O)O
not listed: SR leukemia
> 100 µM: all other assays above

c1ccc([P+](CCNCCNCC[P+](c2ccccc2)(c2ccccc2)c2ccccc2)(c2ccccc2)c2ccccc2)cc1
not listed: SR leukemia | CCRF-CEM leukemia | MALME-3M melanoma | NCI-H522 lung | K-562 leukemia | LOX IMVI melanoma | PC-3 prostate | CAKI-1 renal | HOP-92 NSCLC | HL-60(TB) leukemia
> 100 µM: all other assays above

Cc1ccc2c(c1C)CC1(Cc3c(ccc4c3CCC4)C1=O)C2=O (stereo unspecified)
not listed: SR leukemia | LOX IMVI melanoma | HOP-62 NSCLC
> 100 µM: all other assays above
